This note sets out measurements from ChEMBL document CHEMBL2439983, “The discovery and optimization of novel dual inhibitors of topoisomerase II and histone deacetylase” (Bioorg Med Chem, 2013).

Structures are written as SMILES. Active and inactive are the calls of the source. The rule behind the calls is not given here.

Assay [1] deals with DNA topoisomerase 2-alpha (Homo sapiens) (UniProt P11388). The experiment in a line: Inhibition of Topoisomerase 2 (unknown origin) assessed as impairment of pBR322 DNA decatenation at 100 uM after 30 mins by agarose gel electrophoresis.
DNA topoisomerase 2-alpha (Homo sapiens), sequence (P11388 whole entry): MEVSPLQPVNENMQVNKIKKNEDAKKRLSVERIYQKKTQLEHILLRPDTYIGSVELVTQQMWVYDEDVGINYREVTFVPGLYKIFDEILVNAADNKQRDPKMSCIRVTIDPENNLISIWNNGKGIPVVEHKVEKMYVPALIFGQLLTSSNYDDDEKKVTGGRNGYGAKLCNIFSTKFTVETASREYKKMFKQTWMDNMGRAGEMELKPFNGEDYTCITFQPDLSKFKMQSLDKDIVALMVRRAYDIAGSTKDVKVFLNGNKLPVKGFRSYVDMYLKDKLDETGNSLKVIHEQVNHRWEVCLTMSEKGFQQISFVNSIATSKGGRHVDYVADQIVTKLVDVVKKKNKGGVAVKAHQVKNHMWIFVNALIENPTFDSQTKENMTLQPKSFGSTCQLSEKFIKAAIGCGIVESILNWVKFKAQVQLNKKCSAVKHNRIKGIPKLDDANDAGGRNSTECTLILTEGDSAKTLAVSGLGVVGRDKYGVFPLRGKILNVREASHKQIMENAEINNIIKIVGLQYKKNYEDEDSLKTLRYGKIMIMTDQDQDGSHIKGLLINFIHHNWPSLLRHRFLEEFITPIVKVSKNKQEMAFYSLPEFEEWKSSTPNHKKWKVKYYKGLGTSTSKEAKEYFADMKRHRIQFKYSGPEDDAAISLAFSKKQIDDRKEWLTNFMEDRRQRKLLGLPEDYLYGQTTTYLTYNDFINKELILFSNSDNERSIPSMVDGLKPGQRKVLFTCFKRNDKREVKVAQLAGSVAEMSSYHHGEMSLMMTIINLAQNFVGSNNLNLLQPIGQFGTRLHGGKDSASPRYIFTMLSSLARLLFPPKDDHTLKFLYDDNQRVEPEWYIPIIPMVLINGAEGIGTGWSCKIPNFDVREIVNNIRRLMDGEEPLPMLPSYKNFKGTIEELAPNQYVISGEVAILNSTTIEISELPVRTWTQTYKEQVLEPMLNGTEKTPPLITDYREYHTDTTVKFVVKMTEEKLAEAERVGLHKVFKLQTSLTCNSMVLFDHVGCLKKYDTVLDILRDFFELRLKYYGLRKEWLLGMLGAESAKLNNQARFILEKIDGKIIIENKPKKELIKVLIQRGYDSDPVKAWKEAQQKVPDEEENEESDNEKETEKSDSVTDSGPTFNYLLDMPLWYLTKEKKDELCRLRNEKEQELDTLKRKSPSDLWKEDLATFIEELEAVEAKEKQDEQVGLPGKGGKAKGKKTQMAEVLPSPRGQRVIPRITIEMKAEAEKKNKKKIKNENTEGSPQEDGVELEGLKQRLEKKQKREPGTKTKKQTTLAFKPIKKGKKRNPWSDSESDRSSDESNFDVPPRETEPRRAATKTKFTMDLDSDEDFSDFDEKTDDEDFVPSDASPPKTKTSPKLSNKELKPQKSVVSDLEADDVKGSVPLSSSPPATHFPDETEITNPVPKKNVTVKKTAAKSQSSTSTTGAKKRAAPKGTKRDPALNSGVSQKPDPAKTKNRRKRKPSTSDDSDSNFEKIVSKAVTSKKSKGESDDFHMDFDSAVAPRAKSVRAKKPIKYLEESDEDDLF
Assay [2] concerns the target T1, Protein deacetylase HDAC6 (Homo sapiens, UniProt Q9UBN7).
T1 sequence (Q9UBN7 whole entry): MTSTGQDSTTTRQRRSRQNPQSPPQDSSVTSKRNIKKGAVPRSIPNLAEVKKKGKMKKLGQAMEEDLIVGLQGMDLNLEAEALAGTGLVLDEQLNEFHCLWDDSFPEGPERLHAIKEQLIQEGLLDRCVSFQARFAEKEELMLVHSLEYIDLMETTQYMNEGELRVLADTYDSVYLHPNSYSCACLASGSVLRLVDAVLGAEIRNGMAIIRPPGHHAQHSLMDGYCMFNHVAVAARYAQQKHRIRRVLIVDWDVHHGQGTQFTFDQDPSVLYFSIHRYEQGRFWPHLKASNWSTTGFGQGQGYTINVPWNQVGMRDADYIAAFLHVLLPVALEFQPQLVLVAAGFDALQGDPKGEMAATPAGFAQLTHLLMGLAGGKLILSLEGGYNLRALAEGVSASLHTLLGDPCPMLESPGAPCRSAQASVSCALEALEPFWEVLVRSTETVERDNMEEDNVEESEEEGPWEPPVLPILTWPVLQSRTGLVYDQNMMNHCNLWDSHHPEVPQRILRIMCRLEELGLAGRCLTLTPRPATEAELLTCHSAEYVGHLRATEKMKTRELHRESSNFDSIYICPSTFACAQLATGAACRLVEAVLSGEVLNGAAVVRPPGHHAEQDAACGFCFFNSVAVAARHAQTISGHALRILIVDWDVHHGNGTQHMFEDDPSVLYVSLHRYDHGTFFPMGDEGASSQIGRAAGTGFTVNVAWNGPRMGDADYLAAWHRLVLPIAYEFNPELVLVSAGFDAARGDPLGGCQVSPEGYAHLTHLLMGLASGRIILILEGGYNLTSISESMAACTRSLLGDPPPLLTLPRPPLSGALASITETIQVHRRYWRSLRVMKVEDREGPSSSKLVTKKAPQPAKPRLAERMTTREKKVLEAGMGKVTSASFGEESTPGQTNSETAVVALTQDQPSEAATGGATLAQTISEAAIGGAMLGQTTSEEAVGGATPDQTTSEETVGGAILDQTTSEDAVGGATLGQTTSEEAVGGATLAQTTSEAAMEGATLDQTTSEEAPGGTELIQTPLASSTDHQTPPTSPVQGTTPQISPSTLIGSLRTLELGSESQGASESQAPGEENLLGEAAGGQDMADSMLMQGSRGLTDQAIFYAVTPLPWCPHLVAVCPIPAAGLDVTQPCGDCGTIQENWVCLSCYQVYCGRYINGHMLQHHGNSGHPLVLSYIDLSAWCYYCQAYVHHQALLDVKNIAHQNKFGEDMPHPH
The experiment in a line: Inhibition of human recombinant HDAC6 expressed in baculovirus infected insect high5 cells using Boc-Lys (epsilon-acetyl)-AM) as substrate after 3 to 24 hrs by fluorescence assay.

In another assay the target is Histone deacetylase 1 (Homo sapiens, UniProt Q13547). The assay is described as follows: Inhibition of human recombinant HDAC1 expressed in baculovirus infected insect high5 cells using Ac-Lys-Tyr-Lys (epsilon-acetyl)-AMC as substrate after 3 to 24 hrs by fluorescence assay.
Histone deacetylase 1, sequence (Q13547 whole entry): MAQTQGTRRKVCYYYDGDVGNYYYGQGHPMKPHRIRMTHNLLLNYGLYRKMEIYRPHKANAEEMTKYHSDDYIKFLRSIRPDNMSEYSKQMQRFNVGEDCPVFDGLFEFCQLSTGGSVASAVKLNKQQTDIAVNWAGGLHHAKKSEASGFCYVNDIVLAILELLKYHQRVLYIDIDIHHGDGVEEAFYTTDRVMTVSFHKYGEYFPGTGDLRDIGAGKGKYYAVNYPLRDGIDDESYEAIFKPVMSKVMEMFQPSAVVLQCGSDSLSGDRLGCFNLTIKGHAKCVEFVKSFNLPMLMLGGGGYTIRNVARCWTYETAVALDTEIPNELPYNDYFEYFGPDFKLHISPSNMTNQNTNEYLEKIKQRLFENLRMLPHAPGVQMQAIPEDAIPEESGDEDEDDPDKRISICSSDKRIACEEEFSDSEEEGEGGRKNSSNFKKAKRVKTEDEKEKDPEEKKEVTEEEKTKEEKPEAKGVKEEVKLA
The next assay relates to HCT-116. The experiment in a line: cells. To be noted: Homo sapiens, HCT-116, 72 h.
The target of a further assay is Histone deacetylase 3 (Homo sapiens, UniProt O15379). The assay is described as follows: Inhibition of human recombinant HDAC3 expressed in baculovirus infected insect high5 cells using Ac-Lys-Tyr-Lys (epsilon-acetyl)-AMC as substrate after 3 to 24 hrs by fluorescence assay.
Histone deacetylase 3, sequence (O15379 whole entry): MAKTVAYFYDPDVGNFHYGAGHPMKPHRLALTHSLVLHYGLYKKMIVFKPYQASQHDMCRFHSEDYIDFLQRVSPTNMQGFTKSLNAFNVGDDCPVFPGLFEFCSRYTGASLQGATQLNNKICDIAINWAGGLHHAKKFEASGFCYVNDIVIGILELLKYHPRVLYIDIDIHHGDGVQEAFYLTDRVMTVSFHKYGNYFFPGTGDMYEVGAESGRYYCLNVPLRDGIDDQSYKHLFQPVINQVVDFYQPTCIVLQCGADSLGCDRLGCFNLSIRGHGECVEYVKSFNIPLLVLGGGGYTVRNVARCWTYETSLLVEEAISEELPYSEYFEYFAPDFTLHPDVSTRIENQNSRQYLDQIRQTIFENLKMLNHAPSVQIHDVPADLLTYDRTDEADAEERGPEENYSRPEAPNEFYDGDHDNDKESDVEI
The next assay addresses Histone deacetylase 2 (Homo sapiens, UniProt Q92769). The experiment in a line: Inhibition of HDAC2 (unknown origin).
The subject of another assay is A549. The experiment in a line: Antiproliferative activity against human A549 cells assessed as cell viability after 72 hrs by MTT assay. Format: functional, cell-based. To be noted: A549, 72 h.

Histone deacetylase 2, sequence (Q92769 whole entry): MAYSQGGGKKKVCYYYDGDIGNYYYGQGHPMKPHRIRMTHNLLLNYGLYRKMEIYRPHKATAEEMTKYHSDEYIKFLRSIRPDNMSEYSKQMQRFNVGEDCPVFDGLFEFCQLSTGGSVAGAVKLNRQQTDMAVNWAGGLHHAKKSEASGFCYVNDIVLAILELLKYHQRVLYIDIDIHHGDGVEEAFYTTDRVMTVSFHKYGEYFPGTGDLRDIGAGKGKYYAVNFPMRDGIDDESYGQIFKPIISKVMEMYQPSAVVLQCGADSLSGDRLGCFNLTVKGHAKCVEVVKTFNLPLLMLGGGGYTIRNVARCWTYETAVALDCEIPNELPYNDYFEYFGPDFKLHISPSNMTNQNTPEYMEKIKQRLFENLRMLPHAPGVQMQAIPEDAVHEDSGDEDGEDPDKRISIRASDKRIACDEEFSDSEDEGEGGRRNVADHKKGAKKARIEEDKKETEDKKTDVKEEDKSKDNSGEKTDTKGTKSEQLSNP
Description for HCT-116: Antiproliferative activity against human HCT116 cells assessed as cell viability after 72 hrs by MTT assay

With `COc1cc([C@@H]2c3cc4c(cc3[C@@H](Nc3cccc(NC(=O)CCCCCCC(=O)NO)c3)[C@H]3COC(=O)[C@H]23)OCO4)cc(OC)c1O`, the inhibition result in assay [1] is “Active”. The IC50 in assay [2] was determined as 40 nM; at Histone deacetylase 1 it was 100 nM; in the assay on HCT-116 it was 8570 nM; at Histone deacetylase 3, 130 nM.

Regarding `COc1cc([C@@H]2c3cc4c(cc3[C@@H](Nc3ccc(NC(=O)CCCCCCC(=O)NO)cc3)[C@H]3COC(=O)[C@H]23)OCO4)cc(OC)c1O`, the inhibition entry in assay [1] is “Active”. Moreover, the concentration for half-maximal inhibition (IC50) in assay [2] was determined as 90 nM; at Histone deacetylase 1, 210 nM; with HCT-116 it was 1270 nM; against Histone deacetylase 2, 140 nM; with A549 it was 18600 nM; at Histone deacetylase 3, 230 nM.

For the compound `Nc1ccccc1NC(=O)c1ccc(CNc2nccc(-c3cccnc3)n2)cc1` [MOCETINOSTAT], in assay [1], the inhibition result was “inactive”. This compound also showed an IC50 in the assay on HCT-116 of 1570 nM.

Take `COc1cc([C@@H]2c3cc4c(cc3[C@@H](O[C@@H]3O[C@@H]5CO[C@@H](C)O[C@H]5[C@H](O)[C@H]3O)[C@H]3COC(=O)[C@H]23)OCO4)cc(OC)c1O` [ETOPOSIDE]: the inhibition entry in assay [1] is “Active”. Moreover, the concentration for half-maximal inhibition (IC50) on Histone deacetylase 1 is greater than 34000 nM; in the assay with HCT-116, 870 nM.

As for `COc1cc([C@@H]2c3cc4c(cc3[C@@H](Nc3ccc(OCCCCCCC(=O)NO)cc3)[C@H]3COC(=O)[C@H]23)OCO4)cc(OC)c1O`, the inhibition entry in assay [1] is “Active”. Further, the IC50 in assay [2] was 16 nM; at Histone deacetylase 1, 29 nM; in the assay with HCT-116, 5030 nM; at Histone deacetylase 3 it was 49 nM.

Take `COc1cc([C@@H]2c3cc4c(cc3[C@@H](Nc3ccc(OCCCCCCC(=O)Nc5ccccc5N)cc3)[C@H]3COC(=O)[C@H]23)OCO4)cc(OC)c1O`: the inhibition result in assay [1] is “Active”. The 50% inhibitory concentration (IC50) was found to be 14100 nM on Histone deacetylase 1; 520 nM in the assay on HCT-116; 10400 nM against Histone deacetylase 2; 1160 nM in the assay on A549; 11600 nM on Histone deacetylase 3.

Regarding `COc1cc([C@@H]2c3cc4c(cc3[C@@H](Nc3cccc(OCCCCCCC(=O)Nc5ccccc5N)c3)[C@H]3COC(=O)[C@H]23)OCO4)cc(OC)c1O`, the IC50 with HCT-116 stood at 920 nM; at Histone deacetylase 2 it was 53500 nM; in the assay with A549 it was 1110 nM.

Consider `COc1cc([C@@H]2c3cc4c(cc3[C@@H](Nc3cccc(OCCCCCCC(=O)NO)c3)[C@H]3COC(=O)[C@H]23)OCO4)cc(OC)c1O`, for which, in assay [1], the inhibition result is “Active”. Besides, the IC50 in assay [2] is 5.6 nM; on Histone deacetylase 1, 11 nM; in the assay with HCT-116 it was 3330 nM; at Histone deacetylase 3 it was 9.6 nM.

`COc1cc([C@@H]2c3cc4c(cc3[C@@H](Nc3ccccc3OCCCCCCC(=O)NO)[C@H]3COC(=O)[C@H]23)OCO4)cc(OC)c1O`: the inhibition result in assay [1] is “Active”. The half-maximal inhibitory concentration (IC50) came out at 27 nM in assay [2], 72 nM on Histone deacetylase 1, 11300 nM in the assay on HCT-116 and 155 nM on Histone deacetylase 3.

`COc1cc([C@@H]2c3cc4c(cc3[C@@H](Nc3ccccc3OCCCC(=O)NO)[C@H]3COC(=O)[C@H]23)OCO4)cc(OC)c1O`: the IC50 came out at 357 nM in assay [2], 578 nM at Histone deacetylase 1, 28900 nM in the assay with HCT-116 and 1440 nM at Histone deacetylase 3.

Consider `COc1cc([C@@H]2c3cc4c(cc3[C@@H](Nc3cccc(OCCCC(=O)NO)c3)[C@H]3COC(=O)[C@H]23)OCO4)cc(OC)c1O`, for which the IC50 was 405 nM in assay [2], 385 nM at Histone deacetylase 1, 29400 nM with HCT-116 and 767 nM on Histone deacetylase 3.

On to `COc1cc([C@@H]2c3cc4c(cc3[C@@H](Nc3ccccc3OCCCCCCCC(=O)NO)[C@H]3COC(=O)[C@H]23)OCO4)cc(OC)c1O`, for which the IC50 in assay [2] was found to be 217 nM; at Histone deacetylase 1, 175 nM; in the assay with HCT-116, 11400 nM; at Histone deacetylase 3, 217 nM.

Take `O=C(CCCCCCC(=O)Nc1ccccc1)NO`: the inhibition result in assay [1] is “inactive”.

A word on the IC50: it is the concentration needed to halve the response being measured.
